The record followed here is publication PMC7719179, “Small molecule inhibition of Dynamin-dependent endocytosis targets multiple niche signals and impairs leukemia stem cells” (Nature Communications, 2020).

Assay [1] has as its system pStat5 and Hes1 in DN3a cells. As to the kind of experiment: pStat5 and Hes1 in DN3a cells from treated Lmo2^Tg mice (flow cytometry). Type of assay: in vivo, mouse. The method, then:
The synthesis of Dynole 34-2 and Dyngo 4a compounds was performed as previously described[32],[33] and was kindly provided by A. McCluskey. For in vitro assays, the specific Dynamin inhibitors Dynole 34-2, Dyngo 4a and Dynasore (#S8047, Selleckchem, Sapphire Bioscience Pty Ltd, Redfern NSW, Australia) were made as stock solutions in 100% dimethyl sulfoxide (DMSO), which were stored frozen. These compounds were diluted in 50% v/v DMSO/20 mM Tris-HCl pH 7.4 immediately prior to use. For in vivo administration, Dynole 34-2 was resuspended in pre-warmed HRC#5 (Pharmatek, San Diego CA, USA) 1 : 9 phosphate-buffered saline (PBS) 1× pH 7.4 at 37 °C, and sonicated 10 times for 30 s using a Bioruptor Plus (Biogenode) immediately prior to injection at 30 mg/kg, twice daily.
Phosphoflow analysis was performed as previously described. Briefly, 2 × 10^6 cells stained for surface markers were subsequently resuspended into PBS 1× + 4% v/v paraformaldehyde and incubated for 10 min at 4 °C for fixation. Fixed cells were washed twice using PBS 1×, then resuspended in pre-chilled at −20 °C Perm Buffer III (BD Pharmingen) and incubated 30 min at 4 °C for permeabilization. Cells were washed twice using PBS 1× and incubated overnight at 4 °C in PBS 1× + 2% v/v fetal calf serum (FCS) with Cell Signalling purified antibodies (Genesearch Pty Ltd, Arundel QLD, Australia) against pSTAT5 (Tyr694; #9359), phospho-p38 MAPK (Thr180/Tyr182; #4511), phospho-p44/42 (Erk1/2; #9102), phospho-S6 (Ser235/236; #4856) and phospho-Akt (Ser473; #9271) or isotype control. For intracellular HES1 detection, cells stained for surface markers were subsequently fixed and permeabilized using the BD Cytofix/Cytoperm^TM Kit and incubated overnight at 4 °C in PBS 1× + 2% v/v FCS with a purified antibody against HES1 (D6PU; #11988, Cell Signalling) or isotype control. After staining with primary antibodies for phosphoflow or intracellular detection, cells were incubated in permeabilization buffer with donkey Alexa Fluor 488-conjugated anti-rabbit secondary antibody (A-21206, lot #1910751, Molecular Probes, Invitrogen) or goat Alexa Fluor 546-conjugated anti-rabbit secondary antibody (A-11035, lot #1904467, Molecular Probes, Invitrogen) for 1 h on ice, and washed twice in PBS 1×. Fluorescence-activated cell sorting (FACS) analysis was performed using LSRII and LSR Fortessa cytometers, following the gating strategies described in Supplementary Fig. 11. Cell sorting was performed with a FACSAria or BD Influx.

The subject of assay [2] is ETP12 and ALL8 patient-derived xenografts. As to the kind of experiment: Xenograft models of human T-ALL (ETP12, ALL8): leukemic burden in blood, bone marrow, spleen; spleen weight. Type of assay: in vivo. As for the experimental part:
Patient-derived xenograft models were established as previously described[97],[98]. All experiments were pre-approved by the Human Research Ethics Committee of the University of New South Wales (UNSW), the UNSW Animal Care and Ethics Committee, the Alfred Health Human Ethics Committee and the AMREP Animal Ethics Committee. For transplantation assays, 10^6 splenocytes harvested from successfully engrafted primary human ETP-ALL or T-ALL xenografts were injected into nonobese diabetic/severe combined immunodeficient (NOD.Cg-Prkdc^scid, also termed NOD/SCID) or NOD/SCID/Il2rg^tm1wjl/SzJ (NSG) mice[99]. Moreover, 1.5 × 10^6 cells splenocytes harvested from successfully engrafted patient-derived AML xenografts were injected into nonobese diabetic/severe immunodeficient (NOD.Cg-Rag1^tm1MomIl2rg^tm1wjl/SzJ, also termed NRG) mice expressing human IL-3, human GM-CSF and human SCF from the SGM3 triple transgene (NRGS)[100]. Engraftment into recipients was monitored by FACS analysis of peripheral blood as previously described. […] Both males and females were used. […] Kaplan–Meier survival and statistical analyses were performed using GraphPad Prism. 6.0 software (GraphPad Software, Inc.).
Spleen and sternum from recipients were collected, incubated at least 24 h in 3.7% neutral buffered formalin (pH 7.4), embedded in paraffin and sectioned at 8 μm onto Superforst-Plus slides. Samples were incubated with an anti-human CD45 antibody (Dako, #M0701) in Dako Autostainer Plus solution, then incubated with a sheep anti-mouse IgG conjugated to HRP and processed as per standard protocols using 3,3’ Diaminobenzidine staining (#ab64238, Abcam) for all immunoblots, as previously described. Samples were imaged and annotated using an Aperio ScanScope and software system (Leica Biosystems). […]
(blue circles) and ALL8 (red open circles) 24 hours after the last dose of drugs was administered.
therapy. Median is indicated (bar) with Mean ± SEM indicated for ETP12 and ALL8, 2-way ANOVA
period of administration is indicated in light grey.
A general note: A xenograft is tissue or cells of one species grown in another, often human tumour cells in immunodeficient mice.

For assay [3], the system named is pre-LSCs within the DN3a thymocyte population of Lmo2^Tg mice. In words: Limiting dilution transplantation assay, pre-LSC frequency. Type of assay: in vivo, mouse. As for the experimental part: Single-cell suspension of murine thymus cells were intravenously injected into sublethally irradiated (650 Rads) isogenic Ly5.1 (Cd45.1) mice. Fold expansion was calculated by dividing the absolute output number of donor-derived DN3a cells harvested at the experimental endpoint by the respective number of DN3a thymocytes injected in each recipient. Limiting dilution transplantations were performed as described, by injecting various doses (10^1 to 10^6) of thymocytes per recipient, and mice were scored positive when T-cell lineage reconstitution assessed 6 weeks after transplantation was >1%. Leukemia-propagating cell frequency was calculated by applying Poisson statistics using the ELDA: Extreme Limiting Dilution Analysis software (Walter and Eliza Hall Institute Bioinformatics, Parkville VIC, Australia)[96]. Limiting dilution transplantations were performed independently from any other transplantation assays, using thymocytes from three different Lmo2^Tg mice for each cohort. Kaplan–Meier survival and statistical analysis were performed using GraphPad Prism. 6.0 software (GraphPad Software Inc, San Diego CA, USA).

Values joined by “and” are separate entries in the source; they are usually repeats but may differ in a detail not shown here. Equal entries are not always repeated.

With `CCCCCCCCNC(=O)C(C#N)=Cc1cn(CCCN(C)C)c2ccccc12` [Dynole 34-2, 2-Cyano-N-octyl-3-(1-(3-dimethylaminopropyl)-1H-indol-3-yl)-acrylamide], the “Hes1 (MFI)” value in assay [1] (DN3a cells from treated Lmo2^Tg mice) was 22166 MFI and 17427 MFI and 19107 MFI and 15447 MFI; in assay [1] (GFPhi DN3a cells) it was 2603 MFI and 2496 MFI and 2588 MFI and 2307 MFI and 2171 MFI; in assay [1] (GFPlo DN3a cells), 2885 MFI and 2559 MFI and 2562 MFI and 2408 MFI and 2317 MFI. The “pStat5 (MFI)” value was 1253 MFI and 1075 MFI and 1590 MFI and 1503 MFI and 1019 MFI in assay [1] (GFPhi DN3a cells); 1761 MFI and 1433 MFI and 1767 MFI and 1648 MFI and 1460 MFI in assay [1] (GFPlo DN3a cells). Further, the “Absolute numbers human CD45+ cells” value in assay [2] (ALL8, BM) is 6540000 and 4120000 and 6090000; in assay [2] (ETP12, BM), 4510000 and 5170000 and 3540000. The “Proportion of hCD45+ (%) in peripheral blood” value was 1.0% in assay [2] (ALL8, Time (weeks) 1); 2.0% in assay [2] (ALL8, Time (weeks) 5); 64.0% in assay [2] (ALL8, Time (weeks) 6); 0.1% and 0.0% and 0.2% in assay [2] (ETP12, Time (weeks) 1); 0.2% and 0.1% and 0.3% and 0.0% in assay [2] (ETP12, Time (weeks) 2); 2.8% and 0.4% and 7.0% and 8.6% and 4.0% and 0.0% and 0.2% in assay [2] (ETP12, Time (weeks) 3). Also, the “Proportion of hCD45+ (%) in peripheral blood” value in assay [2] (ETP12, Time (weeks) 7) worked out at 35.2%. Also, the “patient-derived leukemic cells in bone marrow and spleen, Dynole 34-2 combined with chemotherapy compared with chemotherapy alone” value in assay [2] (ETP12 and ALL8 recipients, 24 h after last administration, in words) is “at least tenfold less”. In assay [2] (ETP12 and ALL8 xenografts, result in words), the “leukemic cells in the peripheral blood, bone marrow and spleen, single agent” value is given as “significant reduction in leukemic cells”. In addition, the Spleen weight in assay [2] (PDX ALL8) was 0.116 g and 0.076 g and 0.075 g; in assay [2] (PDX ETP12), 0.157 g and 0.109 g and 0.091 g. Also, the “Limiting dilution assay, Response (positive recipients)” value is recorded as 0 in assay [3] (cell dose 106, 9 recipients tested); 0 in assay [3] (cell dose 1060, 9 recipients tested); 3 in assay [3] (cell dose 10602, 6 recipients tested); 5 in assay [3] (cell dose 106020, 6 recipients tested). For the same compound, the “fold decrease in pre-LSC frequency” value in assay [3] (treated Lmo2^Tg mice vs vehicle) was 100 fold.
